Assay results: patent US20140364431A1, “Quinoline and cinnoline derivatives and their applications” (Shenyang Pharmaceutical University, priority 2011, published 2014)
Values after ≈ are worked out from the molar mass of the structure shown.

How the values were obtained:
[1] = tested on: H460 (human lung cancer cell); test: In vitro anti-tumor cellular activity (MTT), H460; type: cell-based; settings: MTT, 72 hours, H460; for IC50: Homo sapiens, NCI-H460, read-out: H460 IC50
[2] = tested on: SMMC-7721 (hepatoma cell); test: In vitro anti-tumor cellular activity (MTT), SMMC-7721; type: cell-based, human; settings: MTT, 72 hours, SMMC-7721; for IC50: Homo sapiens, read-out: SMMC-7721 IC50
[3] = tested on: MKN-45 (human gastric carcinoma cell); test: In vitro anti-tumor cellular activity (MTT), MKN-45; type: cell-based; settings: MTT, 72 hours, MKN-45; for IC50: Homo sapiens, read-out: MKN-45 IC50
[4] = tested on: HT-29 (colon cancer cell); test: In vitro anti-tumor cellular activity (MTT), HT-29; type: cell-based, human; settings: MTT, 72 hours, HT-29; for IC50: Homo sapiens, read-out: HT-29 IC50
[5] = tested on: U87MG (Human malignant glioblastoma cells); test: In vitro anti-tumor cellular activity (MTT), U87MG; type: cell-based; settings: MTT, 72 hours, U87MG; for IC50: Homo sapiens, U-87 MG, read-out: U87MG IC50
[6] = molecular target: T1, c-Met (His-tagged recombinant human Met (Amino acids 974-ends)) (Homo sapiens, UniProt P08581); test: c-Met kinase assay (ELISA); type: biochemical; settings: 50 pM c-Met, 5 μM ATP, 20 min
T1 construct: His-tagged recombinant human Met (Amino acids 974-ends); His; host or cells: baculovirus expression
Method: c-Met kinase activity was measured with an ELISA reader.
The reaction mixture was removed by washing with 0.2 μg/mL conjugated horseradish peroxidase (HRP) monoclonal antibody specific for phosphotyrosine (PY20) detecting phosphorylation of the substrate polymer. 1M phosphoric acid was added to terminate the color, the chromogenic substrate (TMB) was tested by spectrophotometry at 450 nm.

[7] = tested on: human tumor cell lines (such as human lung cancer cells, human gastric cancer cells, etc.); settings: cited from earlier work

T1 sequence (P08581 974-1390 limits assumed): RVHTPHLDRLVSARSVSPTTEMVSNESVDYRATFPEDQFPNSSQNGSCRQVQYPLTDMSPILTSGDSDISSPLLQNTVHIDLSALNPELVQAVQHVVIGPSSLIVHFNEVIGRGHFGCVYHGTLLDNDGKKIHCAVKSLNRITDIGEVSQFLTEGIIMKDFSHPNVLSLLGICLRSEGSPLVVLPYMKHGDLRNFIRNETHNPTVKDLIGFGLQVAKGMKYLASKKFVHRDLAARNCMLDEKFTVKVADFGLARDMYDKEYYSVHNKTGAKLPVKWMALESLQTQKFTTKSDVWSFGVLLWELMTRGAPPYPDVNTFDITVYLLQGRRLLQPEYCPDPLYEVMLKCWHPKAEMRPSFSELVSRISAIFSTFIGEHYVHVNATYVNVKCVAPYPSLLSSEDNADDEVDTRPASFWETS

Compound | IC50 [1] [µg/mL] | IC50 [2] [µg/mL] | IC50 [3] [µg/mL] | IC50 [4] [µg/mL] | IC50 [5] [µg/mL] | IC50 [6] [nM] | IC50 against a variety of human tumor cell lines [7] [µg/mL] | H460 IC50 [1] [µg/mL] | SMMC-7721 IC50 [2] [µg/mL] | MKN-45 IC50 [3] [µg/mL] | HT-29 IC50 [4] [µg/mL] | U87MG IC50 [5] [µg/mL] | c-Met IC50 [6] [µg/mL]
COc1cc2c(Oc3ccc(NC(=O)c4nn(-c5ccc(Br)cc5F)c5ccccc5c4=O)cc3F)cnnc2cc1OCCCN1CCOCC1 [Example 68, N-(3-fluoro-4-((6-methoxy-7-(3-(morpholin-4-yl)propoxy)cinnolin-4-yl)oxy)phenyl)-1-(4-bromo-2-fluorophenyl)-4-oxo-1,4-dihydrocinnoline-3-carboxamide] | 1.5 (≈ 1.94 µM) | 2.9 (≈ 3.75 µM) | 2.5 (≈ 3.23 µM) | 2.1 (≈ 2.71 µM) | 1.3 (≈ 1.68 µM) | 1160 | – | – | – | – | – | – | –
COc1cc2c(Oc3ccc(NC(=O)c4nn(-c5ccc(F)cc5)c5ccccc5c4=O)cc3F)cnnc2cc1OCCCN1CCN(C)CC1 [Example 69, N-(3-fluoro-4-((6-methoxy-7-(3-(4-methylpiperazin-1-yl)propoxy)cinnolin-4-yl)oxy)phenyl)-1-(4-fluorophenyl)-4-oxo-1,4-dihydrocinnoline-3-carboxamide] | 2.3 (≈ 3.25 µM) | 1.3 (≈ 1.84 µM) | 2.6 (≈ 3.67 µM) | 2.1 (≈ 2.97 µM) | 1.8 (≈ 2.54 µM) | 1550 | – | – | – | – | – | – | –
COc1cc2c(Oc3ccc(NC(=O)C4(C(=O)Nc5ccc(F)cc5)CC4)cc3F)ccnc2cc1OCCCN1CCOCC1 [Foretinib] | – | – | – | – | – | – | 0.004 | – | – | – | – | – | –
N-(3-fluoro-4-((6-methoxy-7-(3-(4-methylpiperazin-1-yl)propoxy)quinolin-4-yl)oxy)phenyl)-1-(2-(trifluoromethyl)phenyl)-4-oxo-1,4-dihydrocinnoline-3-carboxamide [Example 44] | – | – | – | – | – | – | – | 1.6 | 2.1 | 1.8 | 1.2 | 0.84 | 1.1
N-(3-fluoro-4-((6-methoxy-7-(3-(4-methylpiperazin-1-yl)propoxy)quinolin-4-yl)oxy)phenyl)-1-(2-chlorophenyl)-4-oxo-1,4-dihydrocinnoline-3-carboxamide dihydrochloride [Example 17] | – | – | – | – | – | – | – | 1.4 | 0.5 | 2.1 | 1.8 | 0.9 | 0.2
N-(3-fluoro-4-((6-methoxy-7-(3-(4-methylpiperidin-1-yl)propoxy)quinolin-4-yl)oxy)phenyl)-1-(2-chlorophenyl)-4-oxo-1,4-dihydrocinnoline-3-carboxamide dihydrochloride [Example 15] | – | – | – | – | – | – | – | 1 | 1.5 | 0.8 | 0.6 | 0.2 | 0.66
N-(3-fluoro-4-((6-methoxy-7-(3-(4-methylpiperidin-1-yl)propoxy)quinolin-4-yl)oxy)phenyl)-1-(3,4-difluorophenyl)-4-oxo-1,4-dihydroquinoline-3-carboxamide [Example 58] | – | – | – | – | – | – | – | 1.4 | 1.1 | 1.8 | 0.95 | 2.1 | 0.72
N-(3-fluoro-4-((6-methoxy-7-(3-(piperidin-1-yl)propoxy)quinolin-4-yl)oxy)phenyl)-1-(2-fl uorophenyl)-4-oxo-1,4-dihydrocinnoline-3-carboxamide [Example 7] | – | – | – | – | – | – | – | 1.7 | 0.63 | 1.4 | 0.82 | 1.5 | 0.5
N-(3-fluoro-4-((6-methoxy-7-(3-(piperidin-1-yl)propoxy)quinolin-4-yl)oxy)phenyl)-1-(4-fl uorophenyl)-4-oxo-1,4-dihydroquinoline-3-carboxamide dihydrochloride [Example 49] | – | – | – | – | – | – | – | 1.1 | 0.99 | 0.76 | 1.3 | 0.9 | 0.6
N-(3-fluoro-4-((6-methoxy-7-(3-(pyrrolidin-1-yl)propoxy)quinolin-4-yl)oxy)phenyl)-1-(2-c hlorophenyl)-4-oxo-1,4-dihydrocinnoline-3-carboxamide dihydrochloride [Example 16] | – | – | – | – | – | – | – | 0.69 | 0.45 | 1.1 | 0.57 | 0.2 | 0.9
